Assay results as given in article PMC4139342, “Pharmacokinetics-Pharmacodynamics Analysis of Bicyclic 4-Nitroimidazole Analogs in a Murine Model of Tuberculosis” (PLoS ONE, 2014).

Each molecule was assayed on H37Rv::F420-mutants, F420 deficient (FbiC mutant).
Assay type: cell-based, M. tuberculosis
For `O=[N+]([O-])c1cn2c(n1)OC[C@@H](NCc1ccc(OC(F)(F)F)cc1)C2` [Amino-824, ((s)-2-nitro-6,7-dihydro-5H-imidazo[2,1-b][1,3]oxazin-6-yl)-(4-trifluoromethoxybenzyl)amine], the “H37Rv::F420-mutants MIC99” value was >10 µg/mL. With `O=[N+]([O-])c1cn2c(n1)OC[C@@H](NCCc1ccc(OC(F)(F)F)cc1)C2` [AminoEthyl-824] the “H37Rv::F420-mutants MIC99” value was >10 µg/mL. With `O=[N+]([O-])c1cn2c(n1)OC[C@@H](NCc1ccc(OC(F)(F)F)c(Cl)c1)C2` [NI-135] the “H37Rv::F420-mutants MIC99” value was >10 µg/mL. With `O=[N+]([O-])c1cn2c(n1)OC[C@@H](NCc1ccc(OC(F)(F)F)c(F)c1)C2` [NI-136] the “H37Rv::F420-mutants MIC99” value was >10 µg/mL. `CC[C@@H]1Oc2nc([N+](=O)[O-])cn2C[C@@H]1OCc1ccc(OC(F)(F)F)cc1` [NI-145] was tested, and the “H37Rv::F420-mutants MIC99” value was >10 µg/mL. `O=[N+]([O-])c1cn2c(n1)OC[C@@H](NCc1ccc(OC(F)(F)F)c(O)c1)C2` [NI-147] was tested, and the “H37Rv::F420-mutants MIC99” value was >10 µg/mL. In the case of `CC[C@@H]1Oc2nc([N+](=O)[O-])cn2C[C@@H]1NCc1ccc(OC(F)(F)F)c(F)c1` [NI-176], the “H37Rv::F420-mutants MIC99” value is reported as >10 µg/mL. In the case of `CC[C@H]1Oc2nc([N+](=O)[O-])cn2C[C@@H]1NCc1ccc(OC(F)(F)F)cc1` [NI-182], the “H37Rv::F420-mutants MIC99” value is reported as >10 µg/mL. `CC[C@@H]1Oc2nc([N+](=O)[O-])cn2C[C@@H]1NCc1ccc(OC(F)(F)F)cc1` [NI-269] was tested, and the “H37Rv::F420-mutants MIC99” value was >10 µg/mL. For `CC[C@H]1Oc2nc([N+](=O)[O-])cn2C[C@@H]1NCc1ccc(-c2ccc(OC(F)(F)F)cc2)cc1` [NI-297], the “H37Rv::F420-mutants MIC99” value was >10 µg/mL. For `O=[N+]([O-])c1cn2c(n1)OC1(CC1)C(OCc1ccc(OC(F)(F)F)cc1)C2` (centres unmarked) [NI-302], the “H37Rv::F420-mutants MIC99” value was >10 µg/mL. With `O=C(CO[C@@H]1COc2nc([N+](=O)[O-])cn2C1)N1CCN(c2ccc(OC(F)(F)F)cc2)CC1` [NI-622] the “H37Rv::F420-mutants MIC99” value was >10 µg/mL. For `O=C(CO[C@@H]1COc2nc([N+](=O)[O-])cn2C1)N1CCN(c2ccc(C(F)(F)F)cn2)CC1` [NI-644], the “H37Rv::F420-mutants MIC99” value was >10 µg/mL. For `O=[N+]([O-])c1cn2c(n1)OC[C@@H](OCc1ccc(OC(F)(F)F)cc1)C2` [PA-824, (6S)-2-nitro-6-{[4-(trifluoromethoxy)benzyl]oxy}-6,7-dihydro-5H-imidazo[2,1-b][1, 3]oxazine, reference compound], the “H37Rv::F420-mutants MIC99” value was >10 µg/mL.
